Assay results reported in US20240299566A1, “POLY-ARGININE DERIVATIVES FOR ENHANCING BRAIN-DERIVED GROWTH FACTOR TO MITIGATE NEUROLOGICAL DISORDERS” (priority 2021, published 2024).
Entries after “also recorded” stand apart in the source; their conditions may differ.

How the values were obtained:
[1] = system: Angelman syndrome (AS) mice; experiment: Hippocampal LTP (field EPSP slopes, CA1) in Angelman syndrome mice after IP injection; type: in vivo; details: for LTP (field EPSP slopes, CA1 region of hippocampus): IP, AS mice
Protocol: Field EPSP slopes were recorded in the CA1 region of the hippocampus.
Electrophysiological recordings and data analysis were performed as described in Cao et al., 2013 (Impairment of TrkB-PSD-95 Signaling in Angelman Syndrome. PLoS Biol 11, e1001478 (2013). Coronal brain slices (350 μm) were maintained in an interface chamber containing oxygenated artificial cerebral spinal fluid (ACSF) for at least 1 h before use. Slices were transferred to a submersion recording chamber perfused with oxygenated ACSF at 2 ml/min. Extracellular postsynaptic field potentials (fEPSPs) were performed by placing electrodes (borosilicate glass, resistance <1 MΩ) in the CA1 stratum radiatum and synaptic responses elicited by stimulation of the Schaffer Collaterals using concentric bipolar stimulation electrodes and recorded using an AxoClamp2B amplifier (Axon instruments) and EX1 differential amplifier (Dagan), and digitized at 10 kHz. Data were acquired using Igor Pro (Wave Metrics) and Neuromatic (neuromatic.thinkrandom.com). LTP was induced by high frequency stimulation (2×HFS for is at 100 Hz separated by 20 s) of Schaffer collateral afferents and LTP values are expressed as percentage of baseline±SEM. Paired two-tailed t-tests were used for statistical analysis.

IL-1β = experiment: Inflammatory cytokine expression in CORT behavioral model of depression; type: in vivo, mice; details: acute injection, FIG. 4A
Text: A major breakthrough in our understanding of the mechanistic basis for depression is the “inflammatory hypothesis”.

[2] = system: repeated corticosterone-injected mice; experiment: Tail Suspension Test in repeated corticosterone-injected mice; type: in vivo; details: single i.v. injection 1 mg/kg, day 7 after injection
Text: FIG. 3B is a scatter plot showing immobility time of control mice or depressed mice during a Tail Suspension Test, 7 days after injection of vehicle or Compounds of Formula (IV), *P<0.001 vs. control mice.
(§1) Preclinical identification of fast-onset antidepressants requires animal models that can accurately predict the delay to therapeutic onset. […] This has led to the approval of SPRAVATO® (esketamine), a ketamine-derived drug which is the first antidepressant with a novel mechanism of action approved in decades. The neurobiological changes believed to underlie depressive symptomatology have been reliably characterized using exogenous corticosterone (CORT) administration e.g. dendritic atrophy in hippocampal pyramidal cells with loss of CA3 and CA1 apical dendrites. […] Mice then received a single injection of compounds of Formula (IV) (1 mg/kg) or Vehicle (0.9% NaCl). Day 7 after injection of compounds of Formula (IV), immobility times in the FST and TST were tested as described. #P<0.001 vs. control mice.

[3] = system: SH-SY5Y cells transfected with HA-TrkB; experiment: BDNF-stimulated TrkB signaling, western blot with phospho-specific antibodies; type: cell-based; details: 1 μM, FIG. 1D
Protocol: FIG. 1A depicts western blots probed with phospho-specific antibodies against p-MTOR, p-Erk and p-S6 from SHSY5Y cells transfected with TrkB and stimulated with 30 ng/ml BDNF. Blots depict expression before (0′), or 15 or 60 minutes (15′ and 60′) after BDNF stimulation.
SH-SY5Y cells were transfected with HA-TrkB. Following transfection, cells were starved in MEM for 3 hours. In the last 90 minutes of starvation, cells were treated with compounds of Formula (IV) or CN-2097 (shown below) at 1 μM and 5 μM. In the last hour of starvation, cells were stimulated with BDNF. Western blots probed with phospho-specific antibodies against p-MTOR, p-Erk and p-S6 (FIG. 1A).

ischemic episode = experiment: Proposed treatment of patient with ischemia; type: in vivo, human; details: 50 mg/Kg i.v. within 2 hours of onset; outcome within 48 hours
Protocol: A person presents with an ischemic episode resulting sudden numbness the face, and left arm, confusion, and trouble speaking. […] Doses of from about 1 to about 100 mg/Kg will be used.

[4] = system: repeated corticosterone-injected mice; experiment: Forced Swim Test in repeated corticosterone-injected mice; type: in vivo; details: single i.v. injection 1 mg/kg, day 7 after injection
Text: FIG. 3A is a scatter plot showing immobility time of control mice or depressed mice during a Forced Swim Test, 7 days after injection of vehicle or Compounds of Formula (IV), where *P<0.001 vs. control mice.
as §1

microglia = experiment: Microglia morphology in CORT mouse model of depression; type: in vivo, mice; details: acute injection, FIG. 4C
Text: Microglial cells are capable of influencing complex moods, synaptic plasticity, neurogenesis, and memory. […] Classically activated, pro-inflammatory microglia phenotypes (termed M1-like), often release inflammatory mediators that result in severely injured tissue. Alternatively activated, anti-inflammatory microglial phenotypes (termed M2-like) are neuroprotective in function and promote the survival of new neurons. In a healthy brain, most microglial cells are in a resting state. The morphology of resting microglia is poly-branched with many fine branches and a smaller cytoplasm, compared to active microglia that display an increased soma size and more irregular shape of their cell body. Activation of microglia results in the release of pro-inflammatory factors, namely IL-1β, TNFα and IL-6.

## CC(C)C(NC(=O)C1CCC(=O)NCCC(=O)NCCCCC(NC(=O)C(CCC(N)=O)NC(=O)C(NC(=O)C(Cc2c[nH]c3ccccc23)NC(=O)C2CCCN2C(=O)C2CCCN2C(=O)C(Cc2ccccc2)NC(=O)C(CO)NC(=O)CNC(=O)C(N)CSSCC(N)C(=O)NC(CCCNC(=N)N)C(=O)NC(CCCNC(=N)N)C(=O)NC(CCCNC(=N)N)C(=O)NC(CCCNC(=N)N)C(=O)NC(CCCNC(=N)N)C(=O)NC(CCCNC(=N)N)C(=O)NC(CCCNC(=N)N)C(N)=O)C(C)C)C(=O)NC(C(C)O)C(=O)N1)C(=O)O (centres unmarked) [Formula (IV)]
[1]; Angelman mouse model, FIG. 2A-2C
  restoration of hippocampal LTP, dose compared to CN2097: restored hippocampal LTP in an Angelman mouse model at a significantly lower dose as compared to CN2097
[1]; 0.5 mg/kg
  LTP (field EPSP slopes, CA1 region of hippocampus): resulted in LTP; also recorded: LTP was observed
[1]; 1 mg/kg
  LTP (field EPSP slopes, CA1 region of hippocampus): LTP was observed
[1]; 2 mg/kg
  LTP (field EPSP slopes, CA1 region of hippocampus): LTP was observed
IL-1β
  IL-1β expression: blocks the increased expression of IL-1β
[2]
  immobility time in Tail Suspension Test: reduced the duration of immobility time
[3]; BDNF stimulation
  p-S6 activity: enhanced p-S6 activity
[3]
  dose enhancing p-S6 activity, fold lower compared to CN2097: 5 fold
Ischemic episode
  patient outcome after ischemic episode: recovers without significant brain damage
[4]
  immobility time in Forced Swim Test: reduced the duration of immobility time
microglia
  microglia phenotype: switches microglia from an active form (CORT depression) to the resting phenotype
